We go through 7 molecules from US5270312A, “Substituted piperazines as central nervous system agents” (Warner-Lambert Company, priority 1991, dated 1993).

pIC50: −log10 of the molar value.

The target in assay [1] is [^3 H]-spiroperidol binding (receptor assay). Kind of assay: Inhibition of [^3 H]spiroperidol binding, receptor assay. On the procedure: (§1) The compounds of Formula I are valuable dopaminergic agents. […] Thus, the compounds of Formula I were tested for their ability to inhibit locomotor activity in mice according to the assay described by J. R. McLean, et al, Pharmacology, Biochemistry and Behavior, Volume 8, pages 97-99 (1978); for their ability to inhibit [^3 H]-spiroperidol binding in a receptor assay described by D. Grigoriadis and P. Seeman, Journal of Neurochemistry, Volume 44, pages 1925-1935 (1985); and for their ability to inhibit dopamine synthesis in rats according to the protocol described by J. R. Walters and R. H. Roth, Naunyn-Schmiedeberg's Archives of Pharmacology, Volume 296, pages 5-14 (1976). The above test methods are incorporated herein by reference. The data in the table show the dopaminergic activity of representative compounds of Formula 1.

Assay [2] concerns locomotor activity in mice. Kind of assay: Inhibition of locomotor activity in mice. Conditions: Mus musculus, IP. The assay is classed as in vivo. The procedure:
as §1

The subject of assay [3] is brain dopamine synthesis in rats. Nature of the assay: Reversal of brain dopamine synthesis in rats (inhibition of dopamine synthesis). The assay is classed as in vivo. To be noted: 10 mg/kg, IP. The procedure: as §1

As to `C(#Cc1cnc2ccccc2c1)CCN1CCN(c2ccccn2)CC1` [Example 1, 3-[4-[4-(2-Pyridinyl)-1-piperazinyl]-1-butynyl]-quinoline], the pIC50 (in general, the IC50 on a negative log10 scale, so that one unit is a factor of ten) in assay [1] was 6.75. Moreover, the ED50 (commonly the dose at which the effect has come halfway, by size or by number of responders) in assay [2] is 1.5 mg/kg.

For `Fc1ccc(N2CCN(CCC#Cc3cccnc3)CC2)cc1` [Example 2, 1-(4-Fluorophenyl)-4-[4-(3-pyridinyl)-3-butynyl]-piperazine], the “% Reversal of Brain Dopamine Synthesis in Rats” value (“% Reversal” below) in assay [3] was found to be 20%. For the same molecule, the negative logarithm of the IC50 (pIC50) in assay [1] was 5.63. In assay [2], this molecule yielded an ED50 of 4.7 mg/kg.

For the molecule `C(#Cc1cccnc1)CCN1CCN(c2ccccn2)CC1` [Example 3, 1-(2-Pyridinyl)-4-[4-(3-pyridinyl)-3-butynyl]-piperazine], the pIC50 in assay [1] was 5.19. The molecule further gave an ED50 in assay [2] of 2.2 mg/kg.

Turning to `O=[N+]([O-])c1ccc(C#CCCN2CCN(c3ccccn3)CC2)nc1` [Example 5, 1-[4-(5-Nitro-2-pyridinyl)-3-butynyl]-4-(2-pyridinyl)piperazine], in assay [1], the pIC50 was below 5.00. Also, in assay [2], the ED50 is 14.1 mg/kg.

Consider `O=[N+]([O-])c1ccc(C#CCCN2CCN(c3ccccn3)CC2)cc1` [Example 6, 1-[4-(4-Nitrophenyl)-3-butynyl]-4-(2-pyridinyl)-piperazine], for which, in assay [1], the pIC50 was 5.60. The same molecule yielded an ED50 in assay [2] of 7.7 mg/kg.

As to `Nc1ccc(C#CCCN2CCN(c3ccccn3)CC2)nc1` [Example 7, 6-[4-[4-(2-Pyridinyl)-1-piperazinyl]-1-butynyl]-3-pyridinamine], the “% Reversal” value in assay [3] is on record as 24%. For the same molecule, the pIC50 in assay [1] is 5.72. In assay [2], this molecule had an ED50 of 0.35 mg/kg.

Consider `Nc1ccc(C#CCCN2CCN(c3ccccn3)CC2)cc1` [Example 8, 4-[4-[4-(2-Pyridinyl)-1-piperazinyl]-1-butynyl]-benzenamine], for which the “% Reversal” value in assay [3] is on record as 63%. In assay [1], this molecule had a pIC50 of 6.21. In assay [2], this molecule gave an ED50 of 0.56 mg/kg.
